Assay results reported in patent US4055648A, “Papaverine thienyl-carboxylates and medicaments containing them” (Choay S.A., priority 1974, dated 1977).
“Also recorded” adds a separate entry of the source. Where a name gives a salt, the structure may show the parent alone.

Key:
platelet adhesivity = assay: in vivo platelet adhesivity in thrombin-sensitized rabbit; details: thrombin 20 U i.v.
Experimental: (§1) The technique used is that described in the study "Disseminated and localized intravascular coagulations" of C. Raby, Masson et Cie, 1970, p. 91-93.
(§2) The parameter used in this technique is the level of platelet adhesivity. The blood to be tested is run through a column of glass beads. Platelet counts are carried out on the blood before and after passage respectively through the glass beads. The difference between these two counts enables the level of platelet adhesivity to be estimated. Comparison of the adhesivity ratios, measured in the treated animals and in the controlled animals, enables the effect of the product under test to be estimated.
In the in vivo test the animal to be tested (the rabbit) is injected with thrombin (20 U) by the intravenous route, for the purpose of sensitizing the platelets, and the product under study is then injected. The behavior of the platelets is studied by samples taken before and after administration of the product under study.
(§3) Papaverine thienyl-2-carboxylate has, in all these tests, been applied in the dissolved state in a 1 % aquous solution of methanol in isotonic chloride solution, in the proportion of 13 mg of papaverine thienyl-2-carboxylate per 100 ml of this solution.
30 Animals were treated in the in vivo tests:
10 animals with the thrombin alone (control animals), […]

[1] = system: unilateral cerebral oedema; assay: unilateral cerebral oedema: cortical electrogenesis ("R" index) and residual cortical reactivity, intraduodenal route; type: in vivo, rabbit
Experimental: The effect of a medicament on the oxygen and glucose metabolisms is estimated, in this test, by the reduction in the deleterious effects of oedema on certain parameters with respect to the controls.
The technique used is that described in the work "Aggressology" 1972, 13, Vol. IV, p. 257-259 (M.G. Borzex, M. Labos, J. Cahn). The principle of the test consists of producing unilateral ablation of a bone flap of 7 to 10 mm diameter in the occipital region. The incision, 48 hours later, of the dura mater or dural (membrane which surrounds the brain) results in the formation of an oedema.
Two essential parameters are selected to judge the seriousness of the oedematous effect and to subsequently permit estimation of the effects of the compound under study: electrogenesis on the "injured" hemisphere and the development of residual cortical reactivity in this same hemisphere.
The electrogenesis is judged by variations in the index (R), defined as the ratio of the number of rapid rhythms (theta arousal rhythm) to the number of slow waves of the electrocorticogram (determined by electroencephalography). On the injured side, the size of the slow waves tends to increase and that of the thetarhythm connected with the arousal response to be eliminated.
The residual cortical reactivity of the hemisphere carrying the cerebral oedema expresses the percentage of reactivity which persists with regard to a sensorial stimulation (auditive stimulation or nociceptive stimulation of the cutanous nerve ends by pinching of the dorsal skin) despite the oedematous degradation.
An active medicament tends to increase the value of the "R" index and to reestablish the residual cortical reactivity of the animals which have undergone the operation. The activities of the medicament expressed in % growth for the index R, and in % growth for the residual cortical reactivity, are compared with results observed in the controls.
The study was carried out on 42 male rabbits, active, of average weight 2.5 kg (and in eight control animals). The product to be tested (papaverine thienyl-2-carboxylate) was administered by the intraduodenal route, […] after ablation of the bone flap and just before the incision of the dural. This route of administration was selected since it is equivalent to the administration by the oral route.
The rabbits studied were divided in the following manner:
a series of eight "control" animals receiving 2 ml/kg of isotonic chloride solution;
three series of eight rabbits, each having received respectively 5, 10 and 20 mg/kg of papaverine hydrochloride;
two series of eight animals, each receiving respectively 6.2 and 12.4 mg/kg of papaverine thienyl-2-carboxylate (dissolved in alcoholized water, containing 1 ml of alcohol per 30 ml of water);
lastly, two rabbits receiving 2 mg/kg of papaverine hydrochloride dissolved in alcoholized water.
The doses of 5 and 10 mg/kg of papaverine hydrochloride correspond respectively to doses of 6.2 and 12.4 mg/kg of papaverine thienyl-2-carboxylate, if reduced to the corresponding doses of papaverine-base (respectively 4.51 and 9.02 mg/kg).
The development of the two above indicated parameters (expressed below in average values) is observed for 30 hours following the incision of the dural.

[2] = system: platelet adhesivity (blood); assay: in vitro platelet adhesivity (glass bead column, Raby technique); type: cell-based; details: at equal doses expressed in terms of papaverine base
Experimental: as §1, §2
In in vitro test the levels of platelet adhesivity measured on control specimens of blood and on blood specimens to which have previously been added doses of the product under test, are compared.
as §3

[3] = system: platelet adhesivity; disturbances of electrogenesis at the level of the brain; assay: overall comparison of papaverinic activity (platelet adhesivity, brain disturbances, cortical reactivity); details: associated with / expressed as papaverine base
solubility = type: physicochemical
LD50 by the oral route = details: in vivo, mouse
Excerpt: Study of the LD50 (by the oral route) in the mouse has established the complete inoccuousness of papaverine thienyl-carboxylates.

[4] = administration in repeated doses; cited from earlier work

Which “effect on platelet adhesivity” value (platelet adhesivity; 32 γ/ml (20 γ/ml papaverine base)) does the source give for `COc1ccc(Cc2nccc3cc(OC)c(OC)cc23)cc1OC` [papaverine citrate, reference compound] here?
The value was “inactive”.

Which “activity in cerebral oedema” value ([1]; 5 mg/kg intraduodenal (4.51 mg/kg papaverine base), hydrochloride) does the source give for `COc1ccc(Cc2nccc3cc(OC)c(OC)cc23)cc1OC` [papaverine hydrochloride, reference compound] here?
Its value is “practically inactive; also recorded: practically ineffective”.

What about the “treated animals with biological effect” value ([1]; 10 mg/kg intraduodenal) of the same compound?
The value was “about 50%”.

What about the “rabbits with improved residual cortical reactivity” value ([1]; 10 mg/kg intraduodenal, 2 hours following administration) of the same compound?
Its value is “four rabbits out of eight”.

And the “improvement of residual cortical reactivity (average)” value ([1]; 10 mg/kg intraduodenal, 2 hours following administration, average in eight rabbits)?
Its value is 29%.

What about the “rise in the "R" index” value ([1]; 10 mg/kg intraduodenal, between 4 and 6 hours) of the same compound?
The value was 14%.

What about the “rise in the "R" index” value ([1]; 10 mg/kg intraduodenal, first 4 hours) of the same compound?
Its value is 19%.

What about the “animals affected ("R" ratio)” value ([1]; 20 mg/kg intraduodenal) of the same compound?
Its value is “six animals in eight”.

And the “improvement of residual cortical reactivity” value ([1]; 20 mg/kg intraduodenal, between 4 and 6 hours)?
The value was “about 23%”.

And the “improvement of residual cortical reactivity” value ([1]; 20 mg/kg intraduodenal, during 4 hours, same proportion as "R" ratio)?
The value was “improved in the same proportion”.

With `COc1ccc(Cc2nccc3cc(OC)c(OC)cc23)cc1OC` [papaverine thienyl-2-carboxylate] as the compound, how does the “activity relative to known salts of papaverine” value [2] read?
The value was “considerably greater than that of the known salts of papaverine used”.

And the “papaverinic activity compared with known papaverine salts” value [3]?
The value was “to a much higher degree; also recorded: distinctly higher than the salts of papaverine used until now”.

What about the solubility in methanol (solubility) of the same compound?
The solubility in methanol was “Soluble”.

And the “solubility in warm ethanol” value (solubility; warm ethanol)?
Its value is “Soluble”.

And the “activity in cerebral oedema” value ([1]; 6.2 mg/kg intraduodenal)?
Its value is “active”.

What about the “effect compared with papaverine hydrochloride 20 mg/kg” value ([1]; 6.2 mg/kg intraduodenal) of the same compound?
Its value is “rather similar to that exerted by a dose of 20 mg/kg of papaverine hydrochloride”.

And the “rabbits with very distinct improvement of the two parameters” value ([1]; 6.2 mg/kg intraduodenal (4.51 mg/kg papaverine base))?
The value was “five rabbits out of eight”.

And the “extension in the duration of the arousal reactions on the injured hemisphere” value ([1]; 6.2 mg/kg intraduodenal, between second and fourth hours, average in eight rabbits)?
Its value is 45.4%.

And the “duration of improvement of the two parameters” value ([1]; 6.2 mg/kg intraduodenal, five rabbits out of eight)?
The value was “at least 4 hours”.

What about the “effect compared with papaverine hydrochloride 20 mg/kg” value ([1]; 12.4 mg/kg intraduodenal) of the same compound?
The value was “slightly more intense effect and more prolonged than a dose twice as great of papaverine hydrochloride”.

What about the “persistence of improvement of residual cortical reactivity” value ([1]; 12.4 mg/kg intraduodenal) of the same compound?
Its value is “remaining substantially stable during the first 6 hours”.

And the “rabbits with particularly distinct effect” value ([1]; 12.4 mg/kg intraduodenal)?
Its value is “seven rabbits out of eight”.

And the “average rise in the "R" index” value ([1]; 12.4 mg/kg intraduodenal (9.02 mg/kg papaverine base))?
Its value is 38.5%.

What about the “average improvement of residual cortical reactivity” value ([1]; 12.4 mg/kg intraduodenal, maximum effect between 2 and 4 hours, eight rabbits) of the same compound?
Its value is 54.2%.

What about the “activity on residual cortical reactivity compared with papaverine hydrochloride” value ([1]; intraduodenal) of the same compound?
The value was “much more marked activity”.

What about the “activity compared with papaverine hydrochloride” value ([1]; intraduodenal, collected results) of the same compound?
The value was “distinctly more active than papaverine hydrochloride”.

What about the LD50 at 48 h (LD50 by the oral route) of the same compound?
The LD50 at 48 h was 1300 mg/kg.

What about the “effect on platelet adhesivity” value (platelet adhesivity; 2.88 γ/ml (2.10 γ/ml papaverine base)) of the same compound?
The value was “act favourably on the adhesivity rate of the platelets”.

With `COc1ccc(Cc2nccc3cc(OC)c(OC)cc23)cc1OC` [papaverine thienyl-3-carboxylate, Papaverine thienyl-3-carboxylate] as the compound, how does the “solubility in hot ethanol” value (solubility; hot ethanol) read?
The value was “Soluble”.

What about the solubility in methanol (solubility) of the same compound?
The solubility in methanol was “Soluble”.

And the solubility (solubility; water, read-out: solutions in water, content of product)?
The solubility was at most 10000 µg/mL.

With `COc1ccc(Cc2nccc3cc(OC)c(OC)cc23)cc1OC` [papaverine] as the compound, how does the secondary effects [4] read?
The secondary effects was “somnolence, constipation, increased excitability of the reflexes and digestive disorders”.
